{"source": "patent US20060167106A1", "about": "“Compounds acting at the centrosome” (priority 2004, published 2006)", "key": {"[1]": {"system": "CHO cells", "experiment": "Cell morphology, simultaneous time-lapse imaging of CHO cells", "assay_type": "cell-based, Chinese hamster", "description": "CV-1 cells and CHO cells were previously cultured in 2-well chambered cover-slips for 48 hours and incubated in 15 mM HEPES buffer-containing Ham's F-12/DMEM medium with different compounds. The cells were imaged using phase contrast settings with the Nikon TE300 microscope/digital imaging system. The cells were imaged ‘simultaneously’ under control of MetaVue software by capturing frames for cells from different conditions at the same time period using a motorized automated XYZ stage.\nTo track the effect of Compound 1 on live cells, non-transfected CV-1 cells with were treated with 500 nM Compound 1 and phase contrast time-lapse images were taken every 10 seconds. […] A very low concentration of Taxol (10 nM) was used."}, "[2]": {"system": "Hsp70", "experiment": "Hsp70 Western blotting in MDA-435 cells", "assay_type": "cell-based", "conditions": "0.5 μM, normalized to background and GAPDH", "description": "Calculations of the percentage changes were made by using the automated band analysis tools of the Kodak 1D (v.3.6.3) program. Band intensities were normalized to background and GAPDH.\nMDA-435 breast cancer cells were grown in 100 mm plastic-tissue culture dishes and treated for 6 and 24 hours with 0.5 μM Taxol, Compound 1, Taxol+Compound 1, MG132, ALLN, or DMSO. After treatment, cells were washed in PBS and cell lysates were prepared by adding 100 μL of lysis buffer, which contained 20 mM Tris-HCl (pH 7.5), 150 mM NaCl, 1 mM Na2EDTA, 1 mM EGTA, 1% Triton, 2.5 mM sodium pyrophosphate, 1 mM β-glycerophosphate, 1 mM Na3VO4 and 1 μg/ml leupeptin (Cell Signaling Technology, Beverly, Mass.) supplemented with 1 mM PMSF (Sigma, St. Louis, Mo.) immediately before use, on ice for 1 hour. After scraping, the lysates were cleared by centrifugation at 13,000 RPM for 10 minutes at 4° C. Protein content was determined using a Bradford assay and bovine serum albumin as a standard (Bio-Rad Laboratories, Hercules, Calif.). Samples were solubilized by boiling in SDS sample buffer and subjected to SDS-PAGE. The proteins were subsequently transferred to a PVDF membrane (Bio-Rad, Hercules, Calif.). After blocking with 5% nonfat milk in TBS for 1 hour, the blots were incubated with a mouse monoclonal anti-Hsp70 antibody, which is specific for the inducible form of Hsp70 (Clone C92F3A-5, 1:1000 dilution, Stressgen Biotechnologies Corp., Victoria, B.C., Canada) or a rabbit polyclonal anti-GAPDH antibody (1:2000 dilution, Abcam, Cambridge, Mass.) for 2 hours at room temperature. The horseradish-peroxidase-conjugated secondary antibodies, anti-mouse horse radish peroxidase, (1:2000, Bio-Rad, Hercules, Calif.) and goat anti-rabbit polyclonal horse radish peroxidase (1:2000, Abcam, Cambridge, Mass.)) were diluted in blocking buffer and incubated with the blot for 1 hour at room temperature. The secondary antibodies were detected by enhanced chemiluminescence (ECL, Amersham Biosciences, Piscataway, N.J.) and imaged using a Kodak 440 Image Station."}, "[3]": {"system": "CHO-α-tubulin-YFP cells", "experiment": "α-tubulin-YFP localization in CHO-α-tubulin-YFP cells (fluorescence imaging)", "assay_type": "cell-based, Chinese hamster", "from_the_text": "Wild-type Chinese Hamster Ovary cells (WT CHO) cells were maintained in Ham's F-12 medium supplemented with 10% fetal bovine serum (FBS; HyClone, Logan, Utah). Cells of low density (˜20%) growing on 2-well chambered cover-slips (Labtek (Campbell, Calif.) or Fisher Scientific) were transfected with a mammalian expression vector encoding α-tubulin-YFP (Clontech, Palo Alto, Calif.) with the use of FuGENE 6 (Roche Molecular Biochemicals, Indianapolis, Ind.), according to the manufacturer's instructions. Twenty-four hours after transfection, the cells were cultured in 400 μg/ml G418 (Invitrogen, Carlsbad, Calif.)-containing selection medium for 2 weeks. Living cells were examined using a fluorescent microscope for α-tubulin-YFP expression. Cells in single colonies containing microtubules labeled with α-tubulin-YFP were lifted and expanded in G418-containing medium. Expression of α-tubulin-YFP was confirmed by the presence of the tubulin-YFP labeled microtubule pattern identical to immunostained microtubule pattern of non-transfected cells, as well as by subjecting the cells to Western blot analysis using an anti-GFP antibody (Roche Molecular Biochemicals, Basel, Switzerland) and confirming the correct mass of the α-tubulin-YFP chimera protein. Expressed tubulin-YFP was detected as a single band in Western blots. The tubulin-YFP expressing cell lines (referred as CHO-α-tubulin-YFP cells) were used in the studies.\nCHO-α-tubulin-YFP cells were cultured in 2-well chambered cover-slips (Labtek (Campbell, Calif.) or Fisher Scientific) 24 hours before treatment. For comparison of the centrosomal effects of treatment with Compound 1, Compound 1+Taxol, and Taxol, CHO-α-tubulin-YFP cells were treated with Compound 1, Compound 1+Taxol, Taxol, or equivalent concentrations of DMSO-containing media for various time periods before imaging. For comparison of the effects of Compound 1 and known proteasome inhibitors on centrosomes, the nucleus, and perinuclear regions, CHO-α-tubulin-YFP cells were treated with Compound 1, ALLN (Calbiochem, San Diego, Calif.), lactacystin (Calbiochem, San Diego, Calif.) or MG132 (Calbiochem, San Diego, Calif.), and imaged at various time points from 3 hours to 24 hours after treatment.\nTubulin-YFP fluorescence in living cells or fixed cells was captured using a standard filter for FITC and objectives of 20× or 60× magnification on a Nikon TE300 microscope with a Leica DC50 color digital camera (Leica, Bannockburn, Ill.) or a CoolSnap HQ Monochrome CCD camera (Photonetrics, Tucson, Ariz.). The Leica DC50 and CoolSnapHQ cameras were controlled with Leica DC50 software and MetaVue/MetaMorph software, respectively (Universal Imaging Corp, Downingtown, Pa.).\nCHO-α-tubulin-YFP cells were cultured in 2-well chambered cover-slips (Labtek (Campbell, Calif.) or Fisher Scientific) 24 hours before treatment. For comparison of effects on the centrosome, nucleus, and perinuclear regions, cells were treated with Compound 1 and known proteasome inhibitors including ALLN, MG132, Lactacystin, MG115, clasto-Lactacystin β-Lactone (cLβL), and Epoxomicin (10 μM final concentration for all except ALLN, which was used at 100 μM final concentration) (proteasome inhibitors were from Calbiochem, San Diego, Calif.) and imaged at various time points up to 24 hours during treatment.\nTubulin-YFP fluorescence in living cells or fixed cells was captured using a standard filter for FITC and objectives of 20× or 60× magnification on the Nikon TE300 microscope/digital imaging system."}, "[4]": {"system": "26S proteasome", "experiment": "Proteasome-sensor cells (HEK-293, GFP chimera), fluorescence imaging", "assay_type": "cell-based", "conditions": "HEK-293, 100 nM, 24 hours", "from_the_text": "Specifically, the proteasome-sensor cells are HEK-293 cells stably transfected with a vector (proteasome-sensor vector) that encodes naturally-occurring reef coral Zoanthus sp. green fluorescent protein (GFP) fused to a specific degradation motif that targets the fusion protein for removal by the 26S proteasome. The background fluorescence observed in normal cells with active proteasomes is low. When proteasomes are inhibited, the fluorescent protein quickly accumulates. […] Millennium Pharmaceuticals, Inc., Cambridge, Mass.). […] Velcade (Millennium Pharmaceuticals Inc.) was used as a positive control in this assay (at 5 nM, 50 nM, 500 nM or 5 μM). Velcade stock solution was prepared according to the manufacturer's instructions. GFP fluorescence of the cells was imaged at various time points using a standard filter for FITC with the Nikon TE300 microscope/digital imaging system described herein."}}}
{"compound": "CC(=O)O[C@H]1C(=O)[C@@]2(C)[C@H]([C@H](OC(=O)c3ccccc3)[C@]3(O)C[C@H](OC(=O)[C@H](O)[C@@H](NC(=O)c4ccccc4)c4ccccc4)C(C)=C1C3(C)C)[C@]1(OC(C)=O)CO[C@@H]1C[C@@H]2O", "note": "[Taxol]", "values": [{"measurement": "effect on cell morphology", "setting": "[1]; CHO cells, 10 nM, up to 210 minutes", "value": "did not cause significant cell morphological changes"}, {"measurement": "cell death", "setting": "[1]; cells, after a certain period of treatment", "value": "cause cell death after a certain period of treatment"}, {"measurement": "percentage change in Hsp70 expression relative to DMSO control", "setting": "[2]; 6 hours of treatment", "value": 86, "unit": "%"}, {"measurement": "percentage change in Hsp70 expression relative to DMSO control", "setting": "[2]; 24 hours of treatment", "value": 556, "unit": "%"}, {"measurement": "accumulation of tubulin-YFP at the centrosomes", "setting": "[3]; CHO cells, 0.1 μM, 24 hours", "value": "lack of accumulation of tubulin-YFP at the centrosomes"}, {"measurement": "accumulation of tubulin in the centrosomes (overall statement)", "setting": "[3]; CHO-tubulin-YFP cells, concentration and time not given", "value": "no such effect"}, {"measurement": "accumulation of proteasome-sensor protein in cells", "setting": "[4]", "value": "lack of proteasome-sensor protein in cells"}]}
